This is an account of results in ChEMBL document CHEMBL1201862, “PubChem BioAssay data set” (2004).

Test systems include SN12C; SF-295; UACC-62; CCRF-CEM; KM12; COLO 205; Hs-578T; M14; HOP-92; K562; UACC-257; HCT-15; NCI-H23; OVCAR-5; MDA-MB-231; IGROV-1; OVCAR-8; SF-268; MDA-MB-435; 786-0.
What all share (experiment): growth of human tumour cells (NCI), 48 h

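Compound exposure: 48 hours, 5 concentrations, 96-well plates. Here, GI50 denotes the concentration required for 50% inhibition of growth.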 The source made the active and inactive calls. Cut-off read from the data, not from the text of the source: active = GI50 up to about 1.1 µM and inactive = higher.

With `CC/C(Cl)=N\OC(=O)Nc1ccc(C#N)cc1`, the GI50 was 16.4 µM (inactive) in the experiment with SN12C; 18.7 µM (inactive) in the experiment with SF-295; 15 µM (inactive) in the experiment with UACC-62; 1.63 µM (inactive) with CCRF-CEM; 17.1 µM (inactive) in the experiment on KM12; 1.82 µM (inactive) in the experiment on COLO 205. The GI50 is 21.9 µM (inactive) in the experiment on Hs-578T; 12.3 µM (inactive) in the experiment with M14; 3.15 µM (inactive) in the experiment on HOP-92; 1.86 µM (inactive) in the experiment with K562; 16.1 µM (inactive) in the experiment on UACC-257; 7.93 µM in the experiment on HCT-15. The GI50 in the experiment with NCI-H23 was 17.2 µM (inactive); in the experiment on OVCAR-5, 15.9 µM (inactive); in the experiment on MDA-MB-231 it was 15.3 µM (inactive); in the experiment on IGROV-1, 16.4 µM (inactive); with OVCAR-8 it was 16.9 µM (inactive); in the experiment on SF-268, 18.1 µM (inactive). Besides, the GI50 with MDA-MB-435 is 15.6 µM (inactive); with 786-0, 11.2 µM (inactive).

Regarding `Cc1cccc(/N=N/C(=N\NC(=O)c2cc(Cl)ccc2O)c2ccc(N(CCC#N)CCC#N)cc2C)c1`, the GI50 in the experiment on SN12C is 24 µM (inactive); in the experiment with SF-295, 40.3 µM (inactive); in the experiment on UACC-62 it was 24 µM (inactive); with CCRF-CEM it was 8.79 µM (inactive); with KM12 it was 27.2 µM (inactive); in the experiment with COLO 205 it was 13.6 µM (inactive). The GI50 was 77.6 µM (inactive) in the experiment with Hs-578T; 45.5 µM (inactive) in the experiment with M14; 23.8 µM (inactive) with HOP-92; 33.3 µM (inactive) in the experiment with K562; 30.7 µM (inactive) with UACC-257; 27.7 µM with HCT-15. Also, the GI50 is 32.7 µM (inactive) with NCI-H23; 64.9 µM (inactive) in the experiment with OVCAR-5; 21.2 µM (inactive) in the experiment with MDA-MB-231; 14.6 µM (inactive) with IGROV-1; 31.3 µM (inactive) in the experiment on OVCAR-8; 30.1 µM (inactive) in the experiment with SF-268. Moreover, the GI50 was 47.1 µM (inactive) in the experiment with MDA-MB-435 and 38.5 µM (inactive) in the experiment with 786-0.

Consider `Cc1nn(C(=O)c2ccc(Cl)cc2)c2c1C(c1ccco1)SC(=N)N2` (stereo not given), for which the GI50 in the experiment with SN12C, with SF-295, in the experiment on UACC-62, in the experiment with CCRF-CEM, with KM12 and in the experiment with COLO 205 was > 10 µM (inactive) in each case. Moreover, the GI50 in the experiment on Hs-578T was > 10 µM (inactive); with M14, > 10 µM (inactive); in the experiment with HOP-92, > 10 µM (inactive); in the experiment with K562, > 10 µM (inactive); with UACC-257, > 10 µM (inactive); with HCT-15, more than 10 µM. In addition, the GI50 in the experiment on NCI-H23, in the experiment on OVCAR-5, in the experiment on MDA-MB-231, in the experiment on IGROV-1, in the experiment on OVCAR-8 and in the experiment on SF-268 was > 10 µM (inactive) each time. In addition, the GI50 in the experiment with MDA-MB-435 and with 786-0 was > 10 µM (inactive) in each case.

Take `COC(=O)CCc1ccc2c(c1)CC1(C2)Cc2ccc3c(c2C1)CCC3` (stereo not given): the GI50 is 80 µM (inactive) with SN12C; > 100 µM (inactive) in the experiment with SF-295; 23.6 µM (inactive) with UACC-62; 61.7 µM (inactive) in the experiment on CCRF-CEM; 39.3 µM (inactive) in the experiment with KM12; 80.4 µM (inactive) in the experiment on COLO 205. Further, the GI50 is 99.1 µM (inactive) with Hs-578T; 59.2 µM (inactive) in the experiment with M14; 54 µM (inactive) in the experiment with HOP-92; 38.7 µM (inactive) in the experiment on K562; > 100 µM (inactive) in the experiment on UACC-257; 59.2 µM in the experiment with HCT-15. In addition, the GI50 is 50.6 µM (inactive) with NCI-H23; > 10 µM (inactive) with OVCAR-5; 89.1 µM (inactive) in the experiment on MDA-MB-231; > 100 µM (inactive) in the experiment on IGROV-1; 46.2 µM (inactive) in the experiment with OVCAR-8; > 100 µM (inactive) in the experiment on SF-268. For the same compound, the GI50 is 38.1 µM (inactive) in the experiment on MDA-MB-435 and 69.8 µM (inactive) in the experiment with 786-0.

Regarding `COc1ccc(-c2c3c(n(C4OC(CO)C(O)C(O)C4O)c(=S)c2C#N)CC(C)(C)CC3=O)cc1` (stereo not given), the GI50 is > 100 µM (inactive) in the experiment with SN12C; > 100 µM (inactive) in the experiment with SF-295; 97.3 µM (inactive) in the experiment on UACC-62; > 100 µM (inactive) in the experiment with CCRF-CEM; > 100 µM (inactive) in the experiment with KM12; > 100 µM (inactive) in the experiment with COLO 205. The GI50 is > 100 µM (inactive) with Hs-578T; > 100 µM (inactive) in the experiment with M14; > 100 µM (inactive) with HOP-92; > 100 µM (inactive) in the experiment with K562; > 100 µM (inactive) in the experiment with UACC-257; more than 100 µM with HCT-15. Besides, the GI50 with NCI-H23, in the experiment with OVCAR-5, with MDA-MB-231, in the experiment with IGROV-1, in the experiment on OVCAR-8 and in the experiment on SF-268 was > 100 µM (inactive) in each case. Also, the GI50 with MDA-MB-435 and with 786-0 was > 100 µM (inactive) in each case.

With `[B].c1ccc([Si](OCCN2CC2)(c2ccccc2)c2ccccc2)cc1`, the GI50 in the experiment with SN12C is 14.3 µM (inactive); with SF-295, 14.3 µM (inactive); in the experiment on UACC-62, 14.2 µM (inactive); in the experiment on CCRF-CEM it was 18.7 µM (inactive); in the experiment on KM12 it was 15.6 µM (inactive); with COLO 205, 12.2 µM (inactive). The GI50 in the experiment with Hs-578T was 12.4 µM (inactive); with M14, 15.9 µM (inactive); with HOP-92, 2.36 µM (inactive); with K562, 8.3 µM (inactive); in the experiment with UACC-257 it was 15.3 µM (inactive); with HCT-15, 7.66 µM. For the same compound, the GI50 in the experiment on NCI-H23 is 15.6 µM (inactive); with OVCAR-5 it was 14.6 µM (inactive); with MDA-MB-231, 14.9 µM (inactive); in the experiment on IGROV-1, 12.9 µM (inactive); in the experiment with OVCAR-8 it was 16.6 µM (inactive); in the experiment with SF-268 it was 11 µM (inactive). Besides, the values for the GI50 in the experiment with MDA-MB-435 and in the experiment on 786-0 were 13.8 µM (inactive) and 14.2 µM (inactive), respectively.

Consider `COc1ccc2nc(N/N=C/C(C)=N/Nc3cc(C)c4cc(OC)ccc4n3)cc(C)c2c1`, for which the GI50 in the experiment on SN12C is 23.9 µM (inactive); in the experiment on SF-295, 25.1 µM (inactive); in the experiment with UACC-62, 30.8 µM (inactive); in the experiment with CCRF-CEM it was 2.47 µM (inactive); in the experiment on KM12, 18.7 µM (inactive); with COLO 205, 23.2 µM (inactive). Also, the GI50 in the experiment with Hs-578T is 31 µM (inactive); in the experiment on M14 it was 39.1 µM (inactive); with HOP-92, 36.2 µM (inactive); in the experiment on K562 it was 3.9 µM (inactive); in the experiment with UACC-257, 58.5 µM (inactive); with HCT-15, 9.75 µM. Besides, the GI50 is 23.1 µM (inactive) in the experiment with NCI-H23; 27.4 µM (inactive) in the experiment on OVCAR-5; 19 µM (inactive) with MDA-MB-231; 21 µM (inactive) in the experiment with IGROV-1; 19.1 µM (inactive) in the experiment with OVCAR-8; 25.6 µM (inactive) in the experiment on SF-268. Moreover, the GI50 was 29 µM (inactive) in the experiment on MDA-MB-435 and 14 µM (inactive) in the experiment on 786-0.
